In patent publication US20210275657A1, “NEOANTIGENS AND USES THEREOF” (BioNTech US Inc., priority 2018, published 2021):
Where no end group is shown, it is not given here.

Tests used:
[1] = target: indicated HLA alleles; assay: Affinity of mutant BTK neopeptides for indicated HLA alleles; type: binding, human; conditions: BTK_C481S; HLA A02.01
Method: (§1) Multiple peptides containing neoepitopes in the table below were either expressed or loaded onto antigen presenting cells. Mass spectrometry was then performed and the affinity of the neoepitopes for indicated HLA alleles were determined, and the stability of the neoepitopes with the HLA alleles were determined.

[2] = test system: indicated HLA alleles; assay: Stability of mutant BTK neopeptides with the HLA alleles; type: binding, human; conditions: BTK_C481S
Method: as §1

[3] = test system: indicated HLA alleles; assay: Stability of GATA3 neoORF neoepitopes with the HLA alleles (Example 9, Table 4); type: binding, human
Method: (§2) Multiple peptides containing the neoepitopes in Table 4 below were expressed or loaded onto antigen presenting cells (APCs). Mass spectrometry was then performed and the affinity of the neoepitopes for the indicated HLA alleles and stability of the neoepitopes with the HLA alleles was determined.

[4] = target: T1, HLA-A02:01 (Homo sapiens, UniProt P04439, D140Y/D185E/D98H/E176V/E277Q/G131W/G231S/I119V/I121R/I166T/I218V/L300P/L318F/N151K/N90K/P208A/P217A/Q86G/Q94H/R138H/R169H/T345S); assay: Stability measurements, pMHC-I dissociation with 125I light chain (Example 20); type: binding; conditions: for Average half-life: average of experiments 1 and 2
Method: (§3) To measure the binding stability of peptides to Class I MHC, synthetic genes encoding biotinylated MHC-I heavy and light chains are expressed in E. coli and purified from inclusion bodies using standard methods. […] These reactions were carried out in streptavidin coated microplates to bind the biotinylated MHC-I heavy chains to the surface and allow measurement of radiolabeled light chain to monitor complex formation. Dissociation was initiated by addition of higher concentrations of unlabeled light-chain and incubation at 37° C. Stability was defined as the length of time in hours it takes for half of the complexes to dissociate, as measured by scintillation counts. Duplicate measurements were performed. The average of the two measurements was taken as the stability.

[5] = target: HLA-B08:01 (Homo sapiens, UniProt P01889, A93T/A95T/D138N/E176V/E187T/K202T/Q94N/R180D/S35A/V36M/Y33D/Y91F); assay: as above; type: binding
Method: as §3

[6] = test system: indicated HLA alleles; assay: Stability of mutant EGFR neopeptides with the HLA alleles; type: binding, human; conditions: EGFR_T790M
Method: as §1

[7] = target: indicated HLA alleles; assay: Affinity of mutant EGFR neopeptides for indicated HLA alleles; type: binding, human; conditions: EGFR_T790M; HLA A02.01
[8] = target: T1, HLA-A02:01; assay: Detection of GATA3 neoORF peptides by mass spectrometry (Example 8); type: cell-based; conditions: 293T cells transduced with GATA3 neoORF lentiviral vector, expressing HLA-A02:01; peptides eluted from HLA-peptide complexes, MS/MS
[9] = target: indicated HLA alleles; assay: Affinity of GATA3 neoORF neoepitopes for the indicated HLA alleles (Example 9, Table 4); type: binding, human; conditions: Allele A02.01; read-out: Observed MHC affinity
Method: as §2

[10] = test system: antigen specific CD8+ T cells; assay: Antigen specific CD8+ T cell induction monitored with pMHC multimers (Example 10); type: cell-based, human
Method: PBMC samples from a human donor were used to perform antigen specific T cell induction. CD8^+ T cell inductions were analyzed after manufacturing T cells. Cell samples can be taken out at different time points for analysis. pMIHC multimers were used to monitor the fraction of antigen specific CD8^+ T cells in the induction cultures. […] FIG. 9A depicts an exemplary result of a T cell response assay using PBMCs from 6 different healthy donors showing the fraction of antigen specific CD8^+ T cells that responded to […] peptide analyzed by flow cytometry after stimulation or induction. […] FIG. 9B depicts an exemplary result of a T cell response assay using PBMCs from a healthy donor showing fraction of antigen specific CD8^+ T cells that responded to […] peptide analyzed by flow cytometry after stimulation or induction.

[11] = test system: CD8+ T cells; assay: Immunogenicity on MHC I: FLT3L/mDC long term stimulation of healthy donor PBMCs, multimer readout (Example 23); conditions: A02:01

Question: Which results are given for YMANGSLLN?
Answer: Kd [1]: 4000 nM; Stability (1/2 hr) ([2]; HLA A02.01): 0 h

Question: For CC[C@H](C)[C@H](NC(=O)[C@H](CCCCN)NC(=O)[C@H](CO)NC(=O)[C@H](CCC(=O)O)NC(=O)[C@H](C)NC(=O)[C@H](CCCCN)NC(=O)[C@H](CC(C)C)NC(=O)[C@H](Cc1ccccc1)NC(=O)[C@H](CCSC)NC(=O)[C@@H](N)Cc1ccc(O)cc1)C(=O)O, which “Observed MHC stability” value ([3]; Allele A02.01) is on record?
Answer: 0.6 h

Question: And the “Observed MHC stability” value ([3]; Allele A24:02)?
Answer: 1.2 h

Question: What about the “Observed MHC stability” value ([3]; Allele B08:01) of the same compound?
Answer: 0.4 h

Question: And the “Experiment 1 half-life” value [4]?
Answer: 36 min

Question: What about the “Experiment 2 half-life” value [4] of the same compound?
Answer: 36 min

Question: What about the Average half-life [4] of the same compound?
Answer: 36 min

Question: And the “Experiment 1 half-life” value [5]?
Answer: 24 min

Question: What about the “Experiment 2 half-life” value [5] of the same compound?
Answer: 30 min

Question: What about the Average half-life ([5]; average of experiments 1 and 2) of the same compound?
Answer: 24 min

Question: With CC[C@H](C)[C@H](NC(=O)[C@H](CC(C)C)NC(=O)[C@@H](N)CCC(N)=O)C(=O)N[C@@H](CCSC)C(=O)N[C@@H](CCC(N)=O)C(=O)N[C@@H](CC(C)C)C(=O)N[C@@H](CCSC)C(=O)N1CCC[C@H]1C(=O)N[C@@H](Cc1ccccc1)C(=O)O as the compound, how does the “Stability (1/2 hr)” value ([6]; HLA A02.01) read?
Answer: 0.3407 h

Question: What about the “Stability (1/2 hr)” value ([6]; HLA A24.02) of the same compound?
Answer: 0.3687 h

Question: What about the “Stability (1/2 hr)” value ([6]; HLA B08.01) of the same compound?
Answer: 0 h

Question: With LIMQLMPFG as the compound, how does the Kd [7] read?
Answer: 3340 nM

Question: What about the “Stability (1/2 hr)” value ([6]; HLA A02.01) of the same compound?
Answer: 0 h

Question: What does the source list for CC[C@H](C)[C@H](N)C(=O)N[C@@H](CCSC)C(=O)N[C@@H](CCC(N)=O)C(=O)N[C@@H](CC(C)C)C(=O)N[C@@H](CCSC)C(=O)N1CCC[C@H]1C(=O)N[C@@H](Cc1ccccc1)C(=O)NCC(=O)N[C@@H](CS)C(=O)N[C@@H](CC(C)C)C(=O)O?
Answer: Stability (1/2 hr) ([6]; HLA A02.01): 0.5156 h; Stability (1/2 hr) ([6]; HLA A24.02): 0 h; Stability (1/2 hr) ([6]; HLA B08.01): 0 h

Question: What does the source list for IMQLMPFGC?
Answer: Kd [7]: 1210 nM; Stability (1/2 hr) ([6]; HLA A02.01): 0.3701 h

Question: For CSCC[C@H](N)C(=O)N[C@@H](C)C(=O)N[C@@H](CC(N)=O)C(=O)NCC(=O)N[C@@H](CO)C(=O)N[C@@H](CC(C)C)C(=O)N[C@@H](CC(C)C)C(=O)N[C@@H](CC(N)=O)C(=O)N[C@@H](Cc1ccc(O)cc1)C(=O)N[C@@H](CC(C)C)C(=O)O, which “Stability (1/2 hr)” value ([2]; HLA A02.01) is on record?
Answer: 0 h

Question: What about the “Stability (1/2 hr)” value ([2]; HLA B07.02) of the same compound?
Answer: 0 h

Question: What about the “Stability (1/2 hr)” value ([2]; HLA B08.01) of the same compound?
Answer: 0 h

Question: With VLPEPHLAL [VLPEPHLAL] as the compound, how does the “detected by mass spectrometry” value [8] read?
Answer: detected

Question: What about the Kd [9] of the same compound?
Answer: 16 nM

Question: And the “Observed MHC stability” value ([3]; Allele A02.01)?
Answer: 1.1 h

Question: What about the “healthy donors showing an increase in the fraction of antigen specific CD8+ T cells” value ([10]; PBMCs from 3 different healthy donors) of the same compound?
Answer: one of the three donors

Question: STVQLIMQL was tested. Which Kd [7] did it give?
Answer: 7260 nM

Question: And the “Stability (1/2 hr)” value ([6]; HLA A02.01)?
Answer: 0 h

Question: AIQPVLWTT was tested. Which Kd [9] did it give?
Answer: 8 nM

Question: And the “Observed MHC stability” value ([3]; Allele A02.01)?
Answer: 1.5 h

Question: With CSCC[C@H](NC(=O)[C@@H](N)CO)C(=O)N[C@@H](CC(C)C)C(=O)N[C@H](C(=O)NCC(=O)N1CCC[C@H]1C(=O)N1CCC[C@H]1C(=O)N[C@@H](C)C(=O)N[C@@H](CCCNC(=N)N)C(=O)N[C@H](C(=O)O)C(C)C)[C@@H](C)O as the compound, how does the “detected by mass spectrometry” value [8] read?
Answer: detected

Question: And the Kd [9]?
Answer: 14 nM

Question: What about the “Observed MHC stability” value ([3]; Allele A02.01) of the same compound?
Answer: 21.7 h

Question: And the “fraction of antigen specific CD8+ T cells that responded to peptide” value ([10]; healthy donor PBMCs, flow cytometry after stimulation or induction)?
Answer: increase in the fraction of antigen specific T cells

Question: And the “Experiment 1 half-life” value [4]?
Answer: 1300 min

Question: What about the “Experiment 2 half-life” value [4] of the same compound?
Answer: 1310 min

Question: What about the Average half-life [4] of the same compound?
Answer: 1300 min

Question: What about the Percent positive inductions ([11]; naive CD8+ induction confirmed over two stimulations) of the same compound?
Answer: 20%

Question: And the “Number of wells with a reactive TCR” value ([11]; of 5 wells tested, healthy donor PBMCs)?
Answer: 1
